Measurements from patent US20210046085A1, “TREATMENT OF ADVANCED ESTROGEN RECEPTOR POSITIVE BREAST CANCER” (Pantarhei Oncology B.V., priority 2018, published 2021).
Where two headings read alike, the source gives them in different places. Blank lines part the entries; values can stand above or below the molecule they belong to.

How the values were obtained:
SHBG = molecular target: T1, SHBG (Homo sapiens, UniProt P04278); settings: cited from earlier work
T1 sequence (P04278 30-402): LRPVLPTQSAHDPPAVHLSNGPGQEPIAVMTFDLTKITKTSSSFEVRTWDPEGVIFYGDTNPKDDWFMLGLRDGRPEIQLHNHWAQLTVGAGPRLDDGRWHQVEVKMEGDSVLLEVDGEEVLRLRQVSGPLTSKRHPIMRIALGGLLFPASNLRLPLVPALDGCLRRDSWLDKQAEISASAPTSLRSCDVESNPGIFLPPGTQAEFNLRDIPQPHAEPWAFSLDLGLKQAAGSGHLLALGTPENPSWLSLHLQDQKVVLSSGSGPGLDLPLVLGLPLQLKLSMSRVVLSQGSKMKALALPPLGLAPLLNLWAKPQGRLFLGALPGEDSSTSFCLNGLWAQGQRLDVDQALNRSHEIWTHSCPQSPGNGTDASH

[1] = Single dose pharmacokinetics study of oral estriol in postmenopausal women; format: in vivo, human; settings: for concentration at 24 h / concentration at 48 h / concentration at 72 h: female, human, plasma, read-out: Average plasma level; for Average plasma level: 0-24 hours
Procedure: A single dose pharmacokinetics study was conducted to evaluate the pharmacokinetics of different oral dosages of estriol in postmenopausal women. In total 16 women were assigned to two different groups (Cohort A and Cohort B). Each Cohort received two estriol treatments. […] A wash-out period of 7 days was taken into account between the treatments.

MCF-7 cells = settings: and higher (288 pg/ml); cited from earlier work
[2] = single oral dose of 12 mg, postmenopausal women, cited from earlier work
T-47D cells = settings: and higher (288 pg/ml); cited from earlier work
[3] = system: long term estrogen deprived MCF7 breast cancer cells (LTED cells); assay: Cell count in long term estrogen deprived MCF7 breast cancer cells (LTED cells); format: cell-based, human; settings: for Cell number per well: cell count on Day 7
Procedure: LTED cells were plated in 6-well plates at a density of 30,000 cells per well. The cells were maintained in phenol red free IMEM with 5% charcoal stripped FBS (DCC-FBS). On Day 3, the medium was replaced with fresh phenol red free IMEM with 5% DCC-FBS. […] The final vehicle concentration was 0.1% ethanol for all experiments. Each treatment was done in duplicate.
On Day 5, the medium was changed and on Day 7 plates were subjected to a cell count analysis.

[4] = cited from earlier work
[5] = cited from earlier work; remark: listed apart in the source
[6] = system: estrogen response element (ERE); settings: breast cancer cells; cited from earlier work

Compound: C[C@]12CC[C@@H]3c4ccc(O)cc4CC[C@H]3[C@@H]1CC[C@@H]2O [estradiol, 17beta-estradiol]
Binding to SHBG (SHBG; Hammond GL et al., Climacteric 2008): about 40%

concentration at 24 h ([1]; oral dose 5 mg): 0.017 ± 0.011 ng/mL
concentration at 48 h ([1]; oral dose 5 mg): 0.011 ± 0.015 ng/mL
concentration at 72 h ([1]; oral dose 5 mg): 0.002 ± 0.006 ng/mL
concentration at 24 h ([1]; oral dose 10 mg): 0.047 ± 0.067 ng/mL
concentration at 48 h ([1]; oral dose 10 mg): 0.012 ± 0.015 ng/mL
concentration at 72 h ([1]; oral dose 10 mg): 0.001 ± 0.002 ng/mL
concentration at 24 h ([1]; oral dose 20 mg): 0.064 ± 0.041 ng/mL
concentration at 48 h ([1]; oral dose 20 mg): 0.03 ± 0.01 ng/mL
concentration at 72 h ([1]; oral dose 20 mg): 0.008 ± 0.012 ng/mL
concentration at 24 h ([1]; oral dose 40 mg): 0.121 ± 0.113 ng/mL
concentration at 48 h ([1]; oral dose 40 mg): 0.052 ± 0.014 ng/mL
concentration at 72 h ([1]; oral dose 40 mg): 0.013 ± 0.008 ng/mL
Plasma levels of estriol after 72 hours ([1]; oral administration of 20 mg or 40 mg estriol): still significant after 72 hours
Plasma levels of estriol over 24 hours ([1]; oral administration of estriol 5-40 mg): remained fairly constant over 24 hours
Average plasma level ([1]; oral dose 5 mg): 28 pg/mL
Average plasma level ([1]; oral dose 10 mg): 39 pg/mL
Average plasma level ([1]; oral dose 20 mg): 103 pg/mL
Average plasma level ([1]; oral dose 40 mg): 110 pg/mL
Time of second increase after dosing (enterohepatic circulation) ([1]; single oral dose 5-40 mg): 4 to 6 h
Time of peak levels after dosing ([1]; single oral dose 5-40 mg, approximately): 1 to 2 h
Compound: C[C@]12CC[C@@H]3c4ccc(O)cc4CC[C@H]3[C@@H]1C[C@@H](O)[C@@H]2O [estriol, estra-1,3,5(10)-triene-3,16α,17β-triol]
Tolerability ([1]; high oral dose levels, postmenopausal women): well tolerated
Plasma levels of estriol late after dosing ([1]; single oral dose 5-40 mg): still measurable up to 72 hrs post dosing
Concentration exerting a mitogenic effect (MCF-7 cells): ≥ 10^−9 M
Initial increase in estriol levels ([2]; conversion of pmol/L value): 144 to 288 pg/mL
Initial increase in estriol levels ([2]; lasted about four hours): 500 to 1000 pmol/L
Binding to SHBG (SHBG): does not bind to SHBG
Concentration exerting a mitogenic effect (T-47D cells): ≥ 10^−9 M
Growth of LTED cells (result in words) [3]: able to inhibit the growth of LTED cells
Cell number per well ([3]; 10^−5 M estriol): 0.11 ×10^6
Cell number per well ([3]; 10^−6 M estriol): 0.18 ×10^6
Cell number per well ([3]; 10^−7 M estriol): 0.21 ×10^6
Cell number per well ([3]; 10^−8 M estriol): 0.22 ×10^6
Cell number per well ([3]; 10^−9 M estriol): 0.26 ×10^6
Cell number per well ([3]; 10^−10 M estriol): 0.56 ×10^6
Cell number per well ([3]; 10^−11 M estriol): 0.92 ×10^6
Cell number per well ([3]; 10^−12 M estriol): 1.17 ×10^6
Concentration at which peak inhibition is observed ([3]; no significant further inhibition at higher concentrations): 10^−9 M
Half-life after oral administration ([4]; Maturitas (1990), 12:171-197): 9 to 10 h
Half-life after oral administration ([4]; Summary of Product Characteristics of Synapause): 1.5 h
Conjugated in the intestine to glucuronides ([4]; oral administration): 80-90%
Conjugated in the intestine to sulfates ([4]; oral administration): 10-20%
Fraction that reaches the circulation ([4]; oral administration): 1-2%
Peak levels ([5]; oral administration of 6 mg estriol): 80 to 220 pg/mL
Peak levels ([5]; oral administration of 12 mg): 150 to 490 pg/mL
Concentration at which effects on ERE activation were visible [6]: 10^−10 M
